Among the data in ChEMBL document CHEMBL4680325, “Design and synthesis of 14 and 15-membered macrocyclic scaffolds exhibiting inhibitory activities of hypoxia-inducible factor 1α” (Bioorg Med Chem, 2021) are IC50 values, retold here.

Where only a bound is given, the exact number is not on record here.

The test system of assay [1] is HeLa. In words: Cytotoxicity against human HeLa cells co-transfected with luciferase reporter plasmid containing HRE and pRL-CMV vector incubated for 12 hrs under hypoxic condition by MTT assay. It counts as cell-based. On the technique in general: A reporter such as luciferase makes a cellular process visible.
The subject of assay [2] is HeLa. The experiment in a line: Antiproliferative activity against human HeLa cells assessed as reduction in cell proliferation measured after 48 hrs by MTT assay. It counts as functional, cell-based.
Another assay deals with HCT-116. In words: Antiproliferative activity against human HCT-116 cells assessed as reduction in cell proliferation measured after 2 days by MTT assay. The format is functional, cell-based. To be noted: HCT-116, 48 h. (In general: Formazan colour is commonly taken as a measure of viable cells.)
A further assay relates to DMS-114. The experiment in a line: Antiproliferative activity against human DMS-114 cells assessed as reduction in cell proliferation measured after 2 days by MTT assay. It counts as functional, cell-based. To be noted: DMS-114, 48 h.
Assay [3] in a line: Inhibition of hypoxia-induced HIF1alpha/P300-CBP interaction mediated gene transcriptional activity in human HeLa cells co-transfected with luciferase reporter plasmid containing HRE and pRL-CMV vector incubated for 12 hrs under hypoxic condition by HRE-dependent dual luciferase reporter gene assay. It counts as cell-based.

As for `CC(C)CCN1CCCCN(CCCc2ccccc2)C(=O)CN2CCC[C@H]2C(=O)N[C@@H](CC(C)C)C1=O`, the IC50 (usually the concentration that gives 50% inhibition) in the assay with HeLa [1] was more than 50 µM; in the assay on HeLa [2] it was 66.4 µM; with HCT-116 it was 12.3 µM; with DMS-114 it was 17.3 µM; in assay [3] it was 9.5 µM.

As for `CC(C)CCN1CCCCN(CCCc2ccccc2)C(=O)CN[C@@H](C)C(=O)N[C@@H](CC(C)C)C1=O`, the IC50 is more than 50 µM in the assay with HeLa [1]; 58.9 µM in the assay with HeLa [2]; 34.8 µM in the assay with HCT-116; 45 µM in the assay on DMS-114; 9.96 µM in assay [3].

As for `CC(C)CCC(=O)N1CCCCN(CCC(C)C)C(=O)[C@H](CC(C)C)NC(=O)[C@H](C)NC(=O)C1`, the IC50 in the assay on HeLa [1] was more than 50 µM; with HeLa [2] it was more than 100 µM; in the assay with HCT-116 it was 83.8 µM; in the assay with DMS-114, more than 90 µM; in assay [3], more than 33 µM.

Regarding `CC(C)CCN1C/C=C/CN(CCCc2ccccc2)C(=O)CN2CCC[C@H]2C(=O)N[C@@H](CC(C)C)C1=O`, the IC50 in the assay on HeLa [1] was more than 50 µM; in the assay with HeLa [2], 54 µM; with HCT-116, 17.1 µM; with DMS-114, 20.9 µM; in assay [3] it was 13.8 µM.

On to `CC(C)CCC(=O)N1C/C=C/CN(CCC(C)C)C(=O)[C@H](CC(C)C)NC(=O)[C@H](C)NC(=O)C1`, for which the IC50 is more than 50 µM in the assay on HeLa [1]; more than 100 µM in the assay with HeLa [2]; more than 90 µM with HCT-116; more than 90 µM with DMS-114; more than 33 µM in assay [3].

On to `CC(C)CCN1CCCCCN(CCCc2ccccc2)C(=O)CN[C@@H](C)C(=O)N[C@@H](CC(C)C)C1=O`, for which the IC50 in the assay with HeLa [1] is more than 50 µM; with HeLa [2], 55.5 µM; with HCT-116, 34.3 µM; with DMS-114, 49 µM; in assay [3] it was 8.7 µM.

On to `OCc1ccc(-c2nn(Cc3ccccc3)c3ccccc23)o1`, for which, in assay [3], the IC50 turned out to be 1 µM.

Regarding `CC(C)CCN1C/C=C/CCN(CCCc2ccccc2)C(=O)CN[C@@H](C)C(=O)N[C@@H](CC(C)C)C1=O`, the IC50 is more than 50 µM with HeLa [1]; 71.2 µM in the assay on HeLa [2]; 33.3 µM in the assay with HCT-116; 48.9 µM in the assay with DMS-114; 13.7 µM in assay [3].

For the molecule `CC(C)CCN1C/C=C/CN(CCCc2ccccc2)C(=O)CN[C@@H](C)C(=O)N[C@@H](CC(C)C)C1=O`, the IC50 with HeLa [1] is more than 50 µM; in the assay on HeLa [2] it was 97.1 µM; with HCT-116 it was 25.1 µM; in the assay with DMS-114, 32.2 µM; in assay [3], 16.3 µM.
